Laboratory results reported in patent publication US11083725B2 (priority 2014, dated 2021).

System: NHBE cells
Assay: Biolog metabolic array: substrate use by NHBE cells with or without CA09 infection
Format: cell-based, human
Conditions: for Substrate use, 590 nm absorbance normalized to zero hour, 1 hr: Biolog PMM2, 1 hr; for Substrate use, 590 nm absorbance normalized to zero hour, 5 hr: Biolog PMM2, 5 hr; for Substrate use, 590 nm absorbance normalized to zero hour, 7 hr: Biolog PMM2, 7 hr
[1] = Control (uninfected) NHBE cells
[2] = Virus (CA09-infected, MOI 1) NHBE cells
[3] = Virus: CA09-infected NHBE cells, MOI 1, Biolog PMM2

| Structure (SMILES) | 590 nm absorbance normalized to zero hour (substrate use), 1 hr [1] | 590 nm absorbance normalized to zero hour (substrate use), 2 hr [1] | 590 nm absorbance normalized to zero hour (substrate use), 3 hr [1] | 590 nm absorbance normalized to zero hour (substrate use), 4 hr [1] | 590 nm absorbance normalized to zero hour (substrate use), 6 hr [1] | 590 nm absorbance normalized to zero hour (substrate use), 8 hr [1] | 590 nm absorbance normalized to zero hour (substrate use), 9 hr [1] | 590 nm absorbance normalized to zero hour (substrate use), 10 hr [1] | 590 nm absorbance normalized to zero hour (substrate use), 11 hr [1] | Substrate use, 590 nm absorbance normalized to zero hour, 1 hr [1] | Substrate use, 590 nm absorbance normalized to zero hour, 5 hr [1] | Substrate use, 590 nm absorbance normalized to zero hour, 7 hr [1] | 590 nm absorbance normalized to zero hour (substrate use), 1 hr [2] | 590 nm absorbance normalized to zero hour (substrate use), 2 hr [2] | 590 nm absorbance normalized to zero hour (substrate use), 3 hr [2] | 590 nm absorbance normalized to zero hour (substrate use), 4 hr [2] | 590 nm absorbance normalized to zero hour (substrate use), 5 hr [2] | 590 nm absorbance normalized to zero hour (substrate use), 6 hr [2] | 590 nm absorbance normalized to zero hour (substrate use), 7 hr [2] | 590 nm absorbance normalized to zero hour (substrate use), 8 hr [2] | also measured |
| --- | --- | --- | --- | --- | --- | --- | --- | --- | --- | --- | --- | --- | --- | --- | --- | --- | --- | --- | --- | --- | --- |
| O=c1[nH]cnc2c1ncn2[C@@H]1O[C@H](CO)[C@@H](O)[C@H]1O [Inosine] | 3.56 | 5.67 | 2.78 | 4.11 | 2.23 | 4.46 | 6.41 | 6.92 | 5.14 | 3.56 | 4.02 | 6.19 | 1.16 | 1.78 | 2.23 | 2.45 | 3.06 | 3.30 | 3.54 | 3.88 | 590 nm absorbance normalized to zero hour (substrate use), 9 hr [2]: 4.33; 590 nm absorbance normalized to zero hour (substrate use), 10 hr [2]: 3.83; 590 nm absorbance normalized to zero hour (substrate use), 11 hr [2]: 4.20; 590 nm absorbance normalized to zero hour (substrate use), 1 hr [3]: 1.16; 590 nm absorbance normalized to zero hour (substrate use), 2 hr [3]: 1.78; 590 nm absorbance normalized to zero hour (substrate use), 3 hr [3]: 2.23; 590 nm absorbance normalized to zero hour (substrate use), 4 hr [3]: 2.45; 590 nm absorbance normalized to zero hour (substrate use), 5 hr [3]: 3.06; 590 nm absorbance normalized to zero hour (substrate use), 6 hr [3]: 3.30; 590 nm absorbance normalized to zero hour (substrate use), 7 hr [3]: 3.54; 590 nm absorbance normalized to zero hour (substrate use), 8 hr [3]: 3.88; 590 nm absorbance normalized to zero hour (substrate use), 9 hr [3]: 4.33; 590 nm absorbance normalized to zero hour (substrate use), 10 hr [3]: 3.83; 590 nm absorbance normalized to zero hour (substrate use), 11 hr [3]: 4.20 |
| O=C[C@@H](O)[C@H](O)[C@H](O)CO [D-Arabinose] | 1.59 | 1.50 | 0.77 | 1.35 | 0.39 | 1.00 | 1.14 | 0.96 | 1.35 | 1.59 | 0.99 | 1.04 | 0.65 | 0.90 | 1.03 | 1.07 | 1.22 | 1.29 | 1.37 | 1.33 | 590 nm absorbance normalized to zero hour (substrate use), 9 hr [2]: 1.34; 590 nm absorbance normalized to zero hour (substrate use), 10 hr [2]: 1.38; 590 nm absorbance normalized to zero hour (substrate use), 11 hr [2]: 1.58; 590 nm absorbance normalized to zero hour (substrate use), 1 hr [3]: 0.65; 590 nm absorbance normalized to zero hour (substrate use), 2 hr [3]: 0.90; 590 nm absorbance normalized to zero hour (substrate use), 3 hr [3]: 1.03; 590 nm absorbance normalized to zero hour (substrate use), 4 hr [3]: 1.07; 590 nm absorbance normalized to zero hour (substrate use), 5 hr [3]: 1.22; 590 nm absorbance normalized to zero hour (substrate use), 6 hr [3]: 1.29; 590 nm absorbance normalized to zero hour (substrate use), 7 hr [3]: 1.37; 590 nm absorbance normalized to zero hour (substrate use), 8 hr [3]: 1.33; 590 nm absorbance normalized to zero hour (substrate use), 9 hr [3]: 1.34; 590 nm absorbance normalized to zero hour (substrate use), 10 hr [3]: 1.38; 590 nm absorbance normalized to zero hour (substrate use), 11 hr [3]: 1.58 |
| CC(O)C(=O)O [L-Lactic Acid (DL)] | 1.56 | 2.01 | 2.57 | 2.66 | 1.75 | 3.21 | 3.56 | 3.63 | 4.70 | 1.56 | 3.09 | 2.97 | 1.33 | 1.66 | 2.04 | 2.11 | 2.48 | 2.68 | 2.86 | 3.04 | 590 nm absorbance normalized to zero hour (substrate use), 0 hr [1]: 1.00; Substrate use, 590 nm absorbance normalized to zero hour, 0 hr (Control (uninfected) NHBE cells, Biolog PMM2, 0 hr): 1.00; 590 nm absorbance normalized to zero hour (substrate use), 0 hr [2]: 1.00; 590 nm absorbance normalized to zero hour (substrate use), 9 hr [2]: 3.36; 590 nm absorbance normalized to zero hour (substrate use), 10 hr [2]: 3.49; 590 nm absorbance normalized to zero hour (substrate use), 11 hr [2]: 3.91; 590 nm absorbance normalized to zero hour (substrate use), 0 hr [3]: 1.00; 590 nm absorbance normalized to zero hour (substrate use), 1 hr [3]: 1.33; 590 nm absorbance normalized to zero hour (substrate use), 2 hr [3]: 1.66; 590 nm absorbance normalized to zero hour (substrate use), 3 hr [3]: 2.04; 590 nm absorbance normalized to zero hour (substrate use), 4 hr [3]: 2.11; 590 nm absorbance normalized to zero hour (substrate use), 5 hr [3]: 2.48; 590 nm absorbance normalized to zero hour (substrate use), 6 hr [3]: 2.68; 590 nm absorbance normalized to zero hour (substrate use), 7 hr [3]: 2.86; 590 nm absorbance normalized to zero hour (substrate use), 8 hr [3]: 3.04; 590 nm absorbance normalized to zero hour (substrate use), 9 hr [3]: 3.36; 590 nm absorbance normalized to zero hour (substrate use), 10 hr [3]: 3.49; 590 nm absorbance normalized to zero hour (substrate use), 11 hr [3]: 3.91 |
